± gives the expanded uncertainty stated by the source.
Experiment: xn = mol fraction of the nth substance listed
Conditions: 101 kPa, Liquid

For O=[N+]([O-])c1ccccc1 [nitrobenzene] + c1ccccc1, which mass density (293.15 K, x2 = 0) is on record?
The mass density was 1202.95 ± 2.3 kg/m3.

What about the mass density (293.15 K, x2 = 0.0532) of the same molecule?
Its mass density is 1187.99 ± 2.2 kg/m3.

And the mass density (293.15 K, x2 = 0.1189)?
The mass density was 1169.24 ± 2 kg/m3.

And the mass density (293.15 K, x2 = 0.1842)?
The mass density was 1150.3 ± 1.9 kg/m3.

And the mass density (293.15 K, x2 = 0.2479)?
The mass density was 1131.5 ± 1.7 kg/m3.

What about the mass density (293.15 K, x2 = 0.3012) of the same molecule?
Its mass density is 1115.52 ± 1.6 kg/m3.

And the mass density (293.15 K, x2 = 0.3581)?
Its mass density is 1098.17 ± 1.4 kg/m3.

What about the mass density (293.15 K, x2 = 0.425) of the same molecule?
The mass density was 1077.37 ± 1.3 kg/m3.

What about the mass density (293.15 K, x2 = 0.4891) of the same molecule?
Its mass density is 1057.04 ± 1.1 kg/m3.

And the mass density (293.15 K, x2 = 0.5311)?
Its mass density is 1043.49 ± 1 kg/m3.

And the mass density (293.15 K, x2 = 0.6023)?
Its mass density is 1020.07 ± 0.83 kg/m3.

And the mass density (293.15 K, x2 = 0.6521)?
Its mass density is 1003.34 ± 0.7 kg/m3.

And the mass density (293.15 K, x2 = 0.7198)?
The mass density was 980.14 ± 0.83 kg/m3.

And the mass density (293.15 K, x2 = 0.7811)?
Its mass density is 958.64 ± 1 kg/m3.

And the mass density (293.15 K, x2 = 0.8534)?
The mass density was 932.66 ± 1.2 kg/m3.

And the mass density (293.15 K, x2 = 0.9212)?
Its mass density is 907.66 ± 1.4 kg/m3.

And the mass density (303.15 K, x2 = 0)?
The mass density was 1193.56 ± 2.2 kg/m3.

And the mass density (303.15 K, x2 = 0.0612)?
The mass density was 1176.18 ± 2.1 kg/m3.

What about the mass density (303.15 K, x2 = 0.1384) of the same molecule?
The mass density was 1153.92 ± 1.9 kg/m3.

What about the mass density (303.15 K, x2 = 0.1732) of the same molecule?
The mass density was 1143.76 ± 1.8 kg/m3.

What about the mass density (303.15 K, x2 = 0.2543) of the same molecule?
The mass density was 1119.7 ± 1.6 kg/m3.

And the mass density (303.15 K, x2 = 0.3132)?
Its mass density is 1101.89 ± 1.5 kg/m3.

And the mass density (303.15 K, x2 = 0.3821)?
The mass density was 1080.7 ± 1.3 kg/m3.

What about the mass density (303.15 K, x2 = 0.4422) of the same molecule?
Its mass density is 1061.84 ± 1.2 kg/m3.

What about the mass density (303.15 K, x2 = 0.4922) of the same molecule?
Its mass density is 1045.9 ± 1 kg/m3.

What about the mass density (303.15 K, x2 = 0.5543) of the same molecule?
The mass density was 1025.75 ± 0.88 kg/m3.

What about the mass density (303.15 K, x2 = 0.6123) of the same molecule?
The mass density was 1006.56 ± 0.72 kg/m3.

And the mass density (303.15 K, x2 = 0.6831)?
The mass density was 982.62 ± 0.81 kg/m3.

What about the mass density (303.15 K, x2 = 0.7534) of the same molecule?
Its mass density is 958.28 ± 1 kg/m3.

And the mass density (303.15 K, x2 = 0.8113)?
The mass density was 937.78 ± 1.2 kg/m3.

And the mass density (303.15 K, x2 = 0.8713)?
The mass density was 916.1 ± 1.3 kg/m3.

And the mass density (303.15 K, x2 = 0.9378)?
Its mass density is 891.52 ± 1.5 kg/m3.

And the mass density (313.15 K, x2 = 0)?
Its mass density is 1183.37 ± 2.1 kg/m3.

And the mass density (313.15 K, x2 = 0.0522)?
Its mass density is 1168.46 ± 2 kg/m3.

And the mass density (313.15 K, x2 = 0.1234)?
The mass density was 1147.88 ± 1.9 kg/m3.

What about the mass density (313.15 K, x2 = 0.1923) of the same molecule?
The mass density was 1127.63 ± 1.7 kg/m3.

And the mass density (313.15 K, x2 = 0.2612)?
Its mass density is 1107.04 ± 1.5 kg/m3.

And the mass density (313.15 K, x2 = 0.3122)?
Its mass density is 1091.57 ± 1.4 kg/m3.

What about the mass density (313.15 K, x2 = 0.3723) of the same molecule?
Its mass density is 1073.06 ± 1.2 kg/m3.

And the mass density (313.15 K, x2 = 0.4234)?
Its mass density is 1057.08 ± 1.1 kg/m3.

And the mass density (313.15 K, x2 = 0.4865)?
Its mass density is 1037.03 ± 0.97 kg/m3.

And the mass density (313.15 K, x2 = 0.5382)?
The mass density was 1020.3 ± 0.84 kg/m3.

What about the mass density (313.15 K, x2 = 0.6032) of the same molecule?
Its mass density is 998.9 ± 0.68 kg/m3.

And the mass density (313.15 K, x2 = 0.6632)?
The mass density was 978.75 ± 0.84 kg/m3.

What about the mass density (313.15 K, x2 = 0.7219) of the same molecule?
Its mass density is 958.66 ± 1 kg/m3.

What about the mass density (313.15 K, x2 = 0.7932) of the same molecule?
The mass density was 933.72 ± 1.2 kg/m3.

What about the mass density (313.15 K, x2 = 0.8428) of the same molecule?
Its mass density is 916.03 ± 1.3 kg/m3.

What about the mass density (313.15 K, x2 = 0.9247) of the same molecule?
The mass density was 886.12 ± 1.6 kg/m3.

What about the mass density (323.15 K, x2 = 0) of the same molecule?
The mass density was 1172.38 ± 2 kg/m3.

What about the mass density (323.15 K, x2 = 0.0479) of the same molecule?
The mass density was 1158.64 ± 1.9 kg/m3.

And the mass density (323.15 K, x2 = 0.1387)?
Its mass density is 1132.24 ± 1.7 kg/m3.

What about the mass density (323.15 K, x2 = 0.1842) of the same molecule?
Its mass density is 1118.82 ± 1.6 kg/m3.

And the mass density (323.15 K, x2 = 0.2487)?
The mass density was 1099.55 ± 1.5 kg/m3.

And the mass density (323.15 K, x2 = 0.3286)?
The mass density was 1075.26 ± 1.3 kg/m3.

And the mass density (323.15 K, x2 = 0.392)?
Its mass density is 1055.64 ± 1.1 kg/m3.

And the mass density (323.15 K, x2 = 0.435)?
The mass density was 1042.13 ± 1 kg/m3.

And the mass density (323.15 K, x2 = 0.5023)?
Its mass density is 1020.68 ± 0.84 kg/m3.

And the mass density (323.15 K, x2 = 0.543)?
Its mass density is 1007.49 ± 0.73 kg/m3.

And the mass density (323.15 K, x2 = 0.592)?
Its mass density is 991.42 ± 0.74 kg/m3.

What about the mass density (323.15 K, x2 = 0.6633) of the same molecule?
Its mass density is 967.59 ± 0.93 kg/m3.

What about the mass density (323.15 K, x2 = 0.7328) of the same molecule?
Its mass density is 943.85 ± 1.1 kg/m3.

And the mass density (323.15 K, x2 = 0.7931)?
The mass density was 922.82 ± 1.3 kg/m3.

What about the mass density (323.15 K, x2 = 0.8538) of the same molecule?
The mass density was 901.23 ± 1.5 kg/m3.

And the mass density (323.15 K, x2 = 0.9423)?
Its mass density is 868.96 ± 1.7 kg/m3.

What about the mass density (333.15 K, x2 = 0) of the same molecule?
The mass density was 1160.59 ± 1.9 kg/m3.

What about the mass density (333.15 K, x2 = 0.0501) of the same molecule?
Its mass density is 1146.17 ± 1.8 kg/m3.

And the mass density (333.15 K, x2 = 0.1421)?
The mass density was 1119.35 ± 1.6 kg/m3.

And the mass density (333.15 K, x2 = 0.1924)?
Its mass density is 1104.47 ± 1.5 kg/m3.

What about the mass density (333.15 K, x2 = 0.2517) of the same molecule?
The mass density was 1086.72 ± 1.4 kg/m3.

And the mass density (333.15 K, x2 = 0.3184)?
Its mass density is 1066.47 ± 1.2 kg/m3.

And the mass density (333.15 K, x2 = 0.3618)?
The mass density was 1053.11 ± 1.1 kg/m3.

What about the mass density (333.15 K, x2 = 0.4248) of the same molecule?
The mass density was 1033.47 ± 0.94 kg/m3.

And the mass density (333.15 K, x2 = 0.4921)?
The mass density was 1012.12 ± 0.77 kg/m3.

What about the mass density (333.15 K, x2 = 0.5524) of the same molecule?
The mass density was 992.65 ± 0.73 kg/m3.

What about the mass density (333.15 K, x2 = 0.6013) of the same molecule?
Its mass density is 976.62 ± 0.86 kg/m3.

What about the mass density (333.15 K, x2 = 0.664) of the same molecule?
Its mass density is 955.73 ± 1 kg/m3.

What about the mass density (333.15 K, x2 = 0.723) of the same molecule?
The mass density was 935.71 ± 1.2 kg/m3.

What about the mass density (333.15 K, x2 = 0.7813) of the same molecule?
The mass density was 915.56 ± 1.3 kg/m3.

And the mass density (333.15 K, x2 = 0.8342)?
The mass density was 896.97 ± 1.5 kg/m3.

What about the mass density (333.15 K, x2 = 0.9234) of the same molecule?
The mass density was 864.89 ± 1.8 kg/m3.

What about the mass density (343.15 K, x2 = 0) of the same molecule?
Its mass density is 1148 ± 1.9 kg/m3.

What about the mass density (343.15 K, x2 = 0.0632) of the same molecule?
The mass density was 1129.76 ± 1.7 kg/m3.

And the mass density (343.15 K, x2 = 0.1567)?
The mass density was 1102.42 ± 1.5 kg/m3.

What about the mass density (343.15 K, x2 = 0.219) of the same molecule?
Its mass density is 1083.91 ± 1.3 kg/m3.

What about the mass density (343.15 K, x2 = 0.2678) of the same molecule?
Its mass density is 1069.26 ± 1.2 kg/m3.

And the mass density (343.15 K, x2 = 0.3347)?
Its mass density is 1048.9 ± 1.1 kg/m3.

And the mass density (343.15 K, x2 = 0.3972)?
The mass density was 1029.6 ± 0.91 kg/m3.

And the mass density (343.15 K, x2 = 0.4581)?
Its mass density is 1010.51 ± 0.76 kg/m3.

What about the mass density (343.15 K, x2 = 0.5124) of the same molecule?
Its mass density is 993.23 ± 0.73 kg/m3.

And the mass density (343.15 K, x2 = 0.5639)?
The mass density was 976.61 ± 0.86 kg/m3.

And the mass density (343.15 K, x2 = 0.6384)?
The mass density was 952.15 ± 1.1 kg/m3.

What about the mass density (343.15 K, x2 = 0.7038) of the same molecule?
The mass density was 930.24 ± 1.2 kg/m3.

What about the mass density (343.15 K, x2 = 0.7598) of the same molecule?
The mass density was 911.15 ± 1.4 kg/m3.

And the mass density (343.15 K, x2 = 0.8234)?
Its mass density is 889.07 ± 1.6 kg/m3.

And the mass density (343.15 K, x2 = 0.8824)?
The mass density was 868.19 ± 1.7 kg/m3.

What about the mass density (343.15 K, x2 = 0.9423) of the same molecule?
Its mass density is 846.61 ± 1.9 kg/m3.

Reference: the NIST ThermoML archive (doi:10.1016/j.jct.2004.12.008)
